Experimental data taken from patent US8415507B2 (priority 2010, dated 2013).

What was measured:
[1] = Relative humidity stability at ambient temperature, analyzed by XRPD; assay type: physicochemical
Source text: Upon completion of the duration allowed, the samples were immediately analyzed by XRPD.

[2] = solution supersaturated with respect to pterostilbene; after three days
Method: Solubility and concentration measurements were performed using ultraviolet (UV) spectroscopy on a Spectramax Microplate Reader.
Appropriate dilutions with water were made as necessary to maintain absorbance readings within the standard curve. All experiments were repeated three times to evaluate the standard deviation, while particle size was not controlled for any of the experiments.
Aliquots were centrifuged; supernatant was extracted, and appropriate dilutions were made to maintain absorbance readings within the standard curve. […] All experiments were repeated three times to evaluate the standard deviation, while particle size was not controlled for any of the experiments.

[3] = Lopez-Nicolas 2009; cited from earlier work
[4] = in vivo; cited from earlier work
[5] = assay type: physicochemical
Method: Intrinsic dissolution in 900 mL water at ambient conditions was also attempted. […] Therefore, a concentration vs. time and intrinsic dissolution rate value were unobtainable at these conditions.

Cn1c(=O)c2c(ncn2C)n(C)c1=O [caffeine, reference compound]
Conversion to hydrate at 75% RH ([1]; 75% RH, up to four weeks): does not display signs of conversion
Time of partial conversion to hydrate at 94% RH ([1]; 94% RH): between one and three days
Time of conversion to hydrate at 98% RH ([1]; 98% RH): less than one day

COc1cc(/C=C/c2ccc(O)cc2)cc(OC)c1.Cn1c(=O)c2c(ncn2C)n(C)c1=O [cocrystal 1 (Form I), pterostilbene:caffeine]
Outcome of slurrying in water [2]: precipitation of pterostilbene
Results (form by XRPD) ([1]; additional stress at 98% RH, 1 week (listed after 75% RH, 1 week)): cocrystal 1 (Form I), no caffeine hydrate
Results (form by XRPD) ([1]; additional stress at 98% RH, 4 weeks (listed after 94% RH, 7 days)): cocrystal 1 (Form I), no caffeine hydrate
Results (form by XRPD) ([1]; additional stress at 98% RH, 1 day (listed after 75% RH, 1 day)): cocrystal 1 (Form I), no caffeine hydrate
Results (form by XRPD) ([1]; slurry, 2 days): cocrystal 1 (Form I), no caffeine hydrate

COc1cc(/C=C/c2ccc(O)cc2)cc(OC)c1 [pterostilbene, trans-3,5-dimethoxy-4′-hydroxystilbene]
Solubility in water [3]: poor solubility in water
Bioavailability [4]: poor bioavailability

pterostilbene:glutaric acid [cocrystal 3]
XRPD result in intrinsic dissolution ([5]; 900 mL water at ambient conditions, after 30 minutes): crystalline pterostilbene
XRPD result in powder dissolution ([5]; slurrying in water at ambient, after 5 minutes): crystalline pterostilbene
